Measured values from patent US11617741B1, “Method for inhibiting growth of bacteria” (priority 2021, dated 2023).
In brackets after ≈: the same amount, converted by molar mass. Marks after values point to notes of the source that are not given here.

Tests used:
[1] = molecular target: Bacillus subtilis glyQS T-box; experiment: Binding to chemically synthesized truncated stem I construct; details: truncated stem I construct of glyQS T-box
[2] = tested on: B. subtilis glyQS Stem I specifier loop; experiment: UV-monitored thermodynamic stability measurements of stem I constructs; format: binding, Bacillus subtilis
Method: Thermodynamic parameters were derived from four UV-monitored destabilizations and four renaturations of chemically synthesized wild-type and mutant truncated B. subtilis glyQS Stem I specifier loops in the absence and presence of PKZ18 (10 mM Na2HPO4 and 10 mM KH2PO4; final pH 6.8). The absorbance was collected at 260 nm and was performed using a Varian Cary 3 UV-visible spectrophotometer equipped with a Peltier temperature control accessory. The temperature was increased at a rate of 1° C. per minute from 5 to 85° C. Absorbance data at 260 nm were collected as a function of temperature at a rate of four data points per minute. All experiments were performed simultaneously with a control cell containing buffer only. The error calculated is the error of the mean.

[3] = tested on: A549 human lung epithelial cells; experiment: alamarBlue cell redox activity; format: cell-based; details: 128 μg/ml, 48 hours
Method: (§1) alamarBlue was purchased (Thermo Scientific) and used according to the manufacturer's directions. In short, 50,000 cells of either A549 or J774.16 were added into a 96-well plate in 200 μl and left to adhere overnight. As a control, we used a 96-well plate with the desired drugs at 2× the final concentrations in 160 μl without adding cells. The cells' medium was removed, and 100 μl fresh medium was added, followed by 100 μl of 2× drug from the corresponding wells in the drug plate. Media were added to the drug plate to reduce the concentrations to 1×, and the cells were incubated at 37° C. for 48 or 72 hours. alamarBlue was added at 10 μl per 100 μl, and the fluorescence of both plates at 590 nm was read after overnight incubation. The drug plate fluorescence was subtracted from the cells' plate respective values, and the data were normalized to untreated cells' reading. All plates included a vehicle control used as the 0-μg/ml value for each drug tested. All concentrations were tested in triplicate and included at least three biological replicates. A media control, untreated control, a killing control, and a vehicle control were always included. The cytotoxicity of synergistic or additive MICs of PKZ18 analogs and a common antibiotic (co-MIC) on eukaryotic cells was tested on A549 cells as above, but the two plates were set up identically to the checkerboard assay so that the final concentrations tested corresponded to those tested against MRSA.

[4] = tested on: J774.16 murine macrophages; experiment: alamarBlue cell redox activity; format: cell-based; details: for cellular redox activity: 64 μg/ml
Method: as §1

S. aureus 4220 = tested on: S. aureus 4220
Method: MICs were determined essentially as previously described (Frohlich KM, Weintraub SF, Bell JT, Todd GC, Väre VYP, Schneider R, Kloos ZA, Tabe ES, Cantara WA, Stark CJ, Onwuanaibe UJ, Duffy BC, Basanta-Sanchez M, Kitchen DB, McDonough KA, Agris PF. 2019. Discovery of small-molecule antibiotics against a unique tRNA-mediated regulation of transcription in Gram-positive bacteria. ChemMedChem 14:758-769.). In short, cultures were grown overnight in the appropriate media, diluted to A620 of 0.1, grown for 3 hours, and again diluted to A620 of 0.1. Cultures were then diluted 10-fold, of which 5 μl were added to each well of the 96-well plate used for the experiment except the media control wells. The initial well inoculum was 7.5×10^5 bacteria for S. aureus and 2.5×10^5 bacteria for B. subtilis (bacterial numbers were measured by OD). The 96-well plate was organized as follows. Media (100 μl) were added to all wells. Stock solutions (100 μi) containing 2 times the highest concentration of antibiotics to be tested were loaded to column 1, with two technical repeats per drug. […] The following controls were included: vehicle control (DMSO, chloroform, ethanol, etc.), cells in plain media, and media control (no cells). The initial optical density (A620) of the 96-well plate was determined, the plate was grown for 16 to 24 hours, and at that time, the final optical densities (A620) were read. The initial reading was subtracted from the final reading, and the technical replicates were averaged. MICs of PKZ18 and analogs were compared to clinically used antibiotics such as gentamicin.

B. subtilis 168 [5] = experiment: Minimum inhibitory concentration determination; format: cell-based, Bacillus subtilis
Method: (§2) The 96-well plate was organized as follows. Media (100 μl) were added to all wells.

S. aureus N315 (MRSA) = experiment: Antibiotic resistance frequency (fluctuation assay); format: cell-based, Staphylococcus aureus; details: MRSA
Text: Gentamicin on BHI agar was used as a control.

E. coli = experiment: Minimum inhibitory and bactericidal concentration determination, Gram-negative control; format: cell-based, Escherichia coli
Method: as §2

[6] = tested on: S. aureus N315 (MRSA isolate); experiment: Minimum inhibitory and bactericidal concentration determination; format: cell-based, Staphylococcus aureus
Method: as §2

B. subtilis 168 [7] = tested on: B. subtilis 168
Method: Gentamicin on BHI agar was used as a control. In short, MRSA and B. subtilis were grown overnight in BHI, and 3-hour day cultures at the optical density of A620 of 0.1 were started for both organisms. The optical density after 3 hours of growth was measured; cultures were then pelleted and resuspended to give 10^11 CFU/ml by optical density. CFU of 10^11 per OD were plated in total; 100 μl of the cells were then plated on BHI agar containing either 128 μg/m1PKZ18 or 64 μg/m1PKZ18-22. Serial dilutions of the cells were plated on plain BHI agar in order to calculate the CFU/ml, which was calculated as the number of colonies found on the plates divided by the total number of bacteria plated. CFU means colony forming units, a measure of live bacteria.

glyQS T-box = experiment: qRT-PCR transcriptional read-through of T-box-regulated glyQS (confirmation of inhibition of T-box mechanism); format: cell-based, Bacillus subtilis 1A5; details: confirmation of inhibition of T-box mechanism from qRT-PCR assay
Text: Sample preparation of RNA and cDNA.

[8] = molecular target: Bacillus subtilis tyrS T-box; experiment: Binding to chemically synthesized truncated stem I construct; details: truncated stem I construct of tyrS T-box
[9] = tested on: J774.16 murine macrophages; experiment: Trypan blue cell viability counting; format: cell-based; details: 48 hours
Method: J774.16 cells were grown in J7 medium from a fresh passage in a 1:4 dilution of 70 to 80% confluent cells. The cells were allowed to adhere in 6-well plates overnight. The medium was replaced, and drugs were added to desired concentrations in a total volume of 5 ml/well. A media control, untreated control, a killing control of Triton X-100, and a vehicle control were always included. After 48 hours treatment, medium was removed, and fresh media and Trypan blue were added 1:1 in a final volume of 400 μl. Cells, 100 to 200, from two areas of each well were counted and the data averaged and normalized against untreated cells. The vehicle control served as the 0.0-μg/ml value. At least three biological replicates were included for each drug at each concentration.

[10] = tested on: planktonic growth of Staphylococcus
Method: An overnight culture of S. aureus (ATCC 29213) was diluted to 1×10^7 cells/mL in tryptic soy broth (TSB) supplemented with 10% human plasma (Innovative Research, Novi, Mich. USA) and added to the wells of an MBEC™-HTP Assay Biofilm Innoculator (Innovotech, Edmonton, AB, Canada). The plate was incubated overnight at 37° C. and shaken at 125 rpm. […] Control wells were without a COMPOUND OF Formula I. The treatment plate was incubated for 24 h at 37° C. after which the lid was removed, rinsed with PBS, and placed in a new 96-well plate containing TSB. The biofilm was removed from the assay lid into the recovery plate wells by sonication, a new plate cover was added, and the viability of the biofilm was determined after 24 h of incubation at 37° C. by reading the OD at 625 nm. Three independent experiments were conducted. Concentrations of interest were followed up with colony forming unit (CFU) recovery and scanning electron microscopy analysis. After conclusion of the MBEC assay, the minimum bactericidal concentration (MBC) was determined. The MBC is the lowest concentration of an antibacterial agent required to kill a particular bacterium. The peg lid from the MBEC assay was removed from the challenge plate and 20 μL of medium from each well of the challenge plate was removed and added to a new sterile 96-well plate filled with 180 μL TSB. […]

[11] = tested on: PKZRSA1 (PKZ18-22-resistant MRSA); experiment: MICs against PKZ18-22-resistant mutant compared to WT MRSA; format: cell-based, Staphylococcus aureus
Method: as §2

[12] = tested on: S. aureus (ATCC 29213) biofilm; experiment: MBEC-HTP biofilm model, single agents, CFU recovery; details: range of concentrations up to 1.024 mg/mL
Method: An overnight culture of S. aureus (ATCC 29213) was diluted to 1×10^7 cells/mL in tryptic soy broth (TSB) supplemented with 10% human plasma (Innovative Research, Novi, Mich. USA) and added to the wells of an MBEC™-HTP Assay Biofilm Innoculator (Innovotech, Edmonton, AB, Canada). The plate was incubated overnight at 37° C. and shaken at 125 rpm. […] Control wells were without a COMPOUND OF Formula I. The treatment plate was incubated for 24 h at 37° C. after which the lid was removed, rinsed with PBS, and placed in a new 96-well plate containing TSB. The biofilm was removed from the assay lid into the recovery plate wells by sonication, a new plate cover was added, and the viability of the biofilm was determined after 24 h of incubation at 37° C. by reading the OD at 625 nm. Three independent experiments were conducted. Concentrations of interest were followed up with colony forming unit (CFU) recovery and scanning electron microscopy analysis. After conclusion of the MBEC assay, the minimum bactericidal concentration (MBC) was determined. […]
After rinsing in PBS, designated pegs were snapped off the lid using sterile tweezers and placed in 1.5 mL Eppendorf tubes containing 200 μL PBS. […] The plates were then imaged and colonies counted on a ColonyDoc-It™ Imaging station (UVP, Analytik Jena, Beverly, Mass., USA).

[13] = similarly sized construct with gly codon but lacking the specifier loop
[14] = wild-type truncated glyQS stem I with the specifier loop

SMILES: Cc1sc(NC(=O)C2C3CCC(C3)C2C(=O)O)nc1-c1ccc(C(C)C)cc1 (centres unmarked) [PKZ18-00]
- dissociation constant [1]: low micromolar
- change in melting temperature ΔTm [2, 13]: −0.33
- free energy ΔΔG [2, 13]: +0.22
- change in melting temperature ΔTm [2, 14]: −18.52 °C
- free energy ΔΔG [2, 14]: +3.41 kcal mol^−1
- redox activity [3]: near-total reduction
- cellular redox activity ([4]; 48 hours): increased
- cellular redox activity ([4]; 72 hours): decreased
- redox activity ([4]; 128 μg/ml, 48 hours): near-total reduction
- fold lower MIC in minimal versus rich media (S. aureus 4220; S. aureus 4220): 4 fold
- MIC against S. aureus in minimal media (S. aureus 4220; S. aureus 4220, minimal media): 16^a μg/ml
- MIC against S. aureus in rich media (S. aureus 4220; S. aureus 4220, rich media): 64^a μg/ml
- fold lower MIC in minimal versus rich media (B. subtilis 168 [5]; B. subtilis 168): 8 fold
- MIC against B. subtilis 168 in minimal media (B. subtilis 168 [5]; minimal media): 8 µg/mL (≈ 20.1 µM)
- MIC against B. subtilis 168 in rich media (B. subtilis 168 [5]; rich media): 64 µg/mL (≈ 161 µM)
- resistant colonies (S. aureus N315 (MRSA)): No PKZ18-resistant colonies were found
- MIC E. coli (E. coli): > 256 µg/mL
- MBC E. coli (E. coli; value in parentheses): > 256 µg/mL
- MIC S. aureus N315 ([6]; Table 2): 64 µg/mL (≈ 161 µM)
- MBC S. aureus N315 ([6]; Table 2, value in parentheses): > 256 µg/mL
- resistant colonies (B. subtilis 168 [7]): did not generate resistant colonies
- T-Box targeting (glyQS T-box; Table 1): Yes
- T-Box targeting (glyQS T-box; Table 2): Yes
- dissociation constant [8]: low micromolar
- cell viability ([9]; 64 μg/ml): 76%
- macrophage viability ([9]; 128 μg/ml): 25%

SMILES: CN[C@H](CC(C)C)C(=O)N[C@H]1C(=O)N[C@@H](CC(N)=O)C(=O)N[C@H]2C(=O)N[C@H]3C(=O)N[C@H](C(=O)N[C@H](C(=O)O)c4cc(O)cc(O)c4-c4cc3ccc4O)[C@H](O)c3ccc(c(Cl)c3)Oc3cc2cc(c3O[C@@H]2O[C@H](CO)[C@@H](O)[C@H](O)[C@H]2O[C@H]2C[C@](C)(N)[C@H](O)[C@H](C)O2)Oc2ccc(cc2Cl)[C@H]1O [vancomycin]
- planktonic growth over a range of concentrations [10]: no growth
- fold increase in MIC against PKZRSA1 compared to WT [11]: 2 fold
- MBEC efficacy at highest concentration [12]: not effective
